Values after ≈ are worked out from the molar mass of the structure shown. Values joined by “and” are separate entries in the source; they are usually repeats but may differ in a detail not shown here. Equal values may be shown once. Read-outs that look alike come from different tables or passages of the source. Values belong to the compound of their own block, whether it stands above or below them.
How the values were obtained:
[1] = Saturation solubility in relevant solvents and release media; type: physicochemical; conditions: thermodynamic from solid, read-out: GML Saturation Solubility
Procedure: Approximately 20 mg samples of GML were weighed into microcentrifuge tubes and 100 μL of solvent (n=3) was subsequently added. Samples were vortexed and assessed visually to determine dissolution progress. As dissolution occurred, an additional 20 mg of GML was added until complete saturation was reached. All samples were then stored, protected from light, overnight to confirm complete saturation. […] The supernatant samples were diluted with MeOH and drug concentration was subsequently analyzed via LC-MS as described above.

sperm [2] = experiment: Sander-Cramer assay, 1:6 semen:compound, with recovery; type: cell-based, human; conditions: for MEC after recovery ± SD: 1:6 semen:compound, diluted with 1 mL inhibitor-free media, 60 mins; for MEC ± SD: 30 sec exposure, 1:6 dilution ratio (50 μL semen + 250 μL compound)
Procedure: (§1) Semen samples were collected from consented healthy male donors by masturbation after 2–5 days of sexual abstinence. The protocol was approved by the Eastern Virginia Medical School’s Institutional Review Board (IRB) at the Macon & Joan Brock Virginia Health Sciences, Old Dominion University. Semen analysis was performed according to WHO guidelines.[44]
(§2) The highest spermicidal dilution and minimum effective concentration (MEC) for the test compounds were determined using the modified Sander-Cramer (SCr) assay.[45] […] Briefly, 250 μL of test compounds were incubated with 50 μL of semen for 30 sec at room temperature (RT). During the incubation period, each sample was examined under a phase-contrast microscope (E600 Nikon Eclipse, Melville, MY) for the presence of motile sperm. To evaluate the protective effect of seminal plasma, 50 μL of test compounds were incubated with 50 μL of semen (1:1 dilution ratio) for 30 sec at room temperature (RT). If any motile sperm (i.e. progressive, twitching, etc.) were found within 30 seconds, then the dilution was recorded as ‘Failed’. If no motile sperm were found, the dilution was considered as ‘Pass.’ The results from 4–6 independent experiments were combined, and the highest spermicidal dilution and MEC were calculated as MEC=initialconcentration/highestspermicidaldilution and presented as Mean ± SE.
(§3) To see whether the sperm immobilizing effect of the compounds was reversible, 1 mL of warmed Ham’s F-10 media (Millipore Sigma, MA, USA) supplemented with 1% Human Serum Albumin (HSA) (Millipore Sigma, MA, USA) was added to each sample to further dilute the compound concentration and assess the reversibility of the sperm immobilization effect. Sperm were incubated for an additional 60 mins at 37°C. After this sperm “recovery” period, motility was re-evaluated with manual counting and calculated as: %SpermMotility=TotalMotileSperm/TotalMotile+immobileSperm*100.

sperm [3] = experiment: Modified Sander-Cramer assay, 1:1 semen:compound, with recovery; type: cell-based, human; conditions: for MEC: 30 sec exposure, 1:1 dilution ratio (50 μL semen + 50 μL compound)
Procedure: as §1, §2, §3

sperm [4] = experiment: Time-response sperm motility assay (single compounds, 1:1 dilution); type: cell-based, human
Procedure: A time-response experiment was conducted to assess the impact of contraceptive compounds on sperm motility at various time points following incubation. Sperm samples were incubated with varying concentrations of LA or GML (1:1 dilution ratio) for 30 secs, 10, 30, 60, and 120 minutes. Concentrations of GML were selected based on the critical micelle concentration (CMC) of 16.4 μg/mL.[43] Each sample was examined under a phase-contrast microscope, and sperm motility was assessed manually.

[5] = system: Human vaginal epithelial cells, VK2/E6E7; experiment: In vitro cytotoxicity, MTS assay; type: cell-based; conditions: 24 hrs
Procedure: Human vaginal epithelial cells, VK2/E6E7 (ATCC® CRL-2616™), were used to evaluate GML’s effect on cell viability. VK2 cells were propagated in Gibco™ Keratinocyte SFM (1×) media (Cat# 17005042, ThermoFisher Scientific, MA, USA) supplemented with 0.1 ng/mL epidermal growth factor, 50 μg/mL bovine pituitary extract, 0.4 mM CaCl2, and 1% penicillin and streptomycin (P/S; Cat# 15140–122, Gibco). Cells were incubated with varying concentrations of GML for 24 hrs at 37°C. Cell viability was assessed using CellTiter 96® AQueous Non-Radioactive Cell Proliferation (MTS) Assay (Cat# G5421, Promega, WI, USA) per manufacturer instructions.

[6] = design: method as in PMID 26585883; conditions: cited from earlier work
[7] = Lactic acid titration of simulated vaginal and seminal fluids (pH); type: physicochemical; conditions: for pH reached: same LA concentration (24 mM)
Procedure: The amount of lactic acid necessary for contraceptive efficacy was estimated by measuring solution pH. Simulated vaginal and seminal fluids, with physiologically-representative buffer capacities, were prepared as previously described by Rastogi et al.[43] Simulated vaginal fluid (SVF) was mixed with seminal fluid simulant (SFS) in a 1:5 ratio to represent potential fluid volumes during intercourse.

Compound: CCCCCCCCCCCC(=O)OCC(O)CO (stereo not drawn) [GML, glycerol monolaurate]
solubility at 24 h ([1]; acetone, organic solvent or mixture): 255.2 ± 1.74 mg/mL (≈ 930 mM)
solubility at 24 h ([1]; ethanol, organic solvent or mixture, EtOH): 271 ± 18 mg/mL (≈ 988 mM)
solubility at 24 h ([1]; methanol, organic solvent or mixture, MeOH): 278 ± 45.2 mg/mL (≈ 1010 mM)
solubility at 24 h ([1]; simulated vaginal fluid with 2% Solutol, pH 4.2, aqueous with cosolvent or surfactant or cyclodextrin, SVF (w/ 2% solutol)): 3.25 ± 0.45 mg/mL (≈ 11.8 mM)
solubility at 24 h ([1]; water): 4.48 ± 0.12 mg/mL (≈ 16.3 mM)
Concentration above which compound visibly precipitated (sperm [2]; 0.9% saline): above 0.2 mg/mL
MEC after recovery ± SD (sperm [2]): 1.7 ± 0.9 mg/mL and 1.7 ± 0.9^γ mg/mL
MEC ± SD (sperm [2]): 45 ± 5.5 mg/mL
MEC after recovery (sperm [3]; 1:1 semen:compound, diluted with 1 mL inhibitor-free media, 60 mins): 1.7 ± 0.9 mg/mL
MEC (sperm [3]): 55 ± 5.8 mg/mL
Time to immobilize all sperm (sperm [4]; at 20 mg/mL, 1:1 dilution ratio): 10 min
Concentration completely immobilizing sperm (sperm [4]; incubation 30–120 mins, 1:1 dilution ratio): 2 mg/mL
Concentrations considered non-cytotoxic [5]: ≤ 20 µg/mL
Concentrations significantly decreasing cell viability [5]: ≥ 200 µg/mL
Critical micelle concentration (CMC) [6]: 16.4 µg/mL

LA concentration at which mixture pH reached 4.2 ([7]; 1:5 mixture of SVF and SFS): 24 mM and 2.16 mg/mL
pH reached ([7]; SSF alone): 3.37
pH reached ([7]; SVF alone): 3.67
Compound: CC(O)C(=O)O (stereo not drawn) [LA, lactic acid]
MEC after recovery ± SD (sperm [2]): 9 mg/mL
MEC ± SD (sperm [2]): 9 mg/mL
MEC (sperm [3]): 18 mg/mL
MEC (sperm [4]; following 10 mins, persisting during 120 mins, 1:1 dilution ratio): 10 mg/mL
Concentration inducing immediate sperm immobilization (sperm [4]; summary statement): 10 mg/mL
MEC (sperm [4]; within 30 sec, 1:1 dilution ratio): 20 mg/mL

Source: paper PMC12668138, “First-in-line 3D-printed intravaginal ring for nonhormonal contraception” (Research Square, 2025)
